Experimental data published in patent publication US9868748B2, “Thiazolopyrrolidine inhibitors of ROR- γ” (Vitae Pharmaceuticals, Inc., priority 2013, dated 2018).
Read-outs that look alike come from different tables or passages of the source.

Tests used:
[1] = target: recombinant RORγ Ligand Binding Domain (LBD) protein (Homo sapiens (Human), UniProt P51449); experiment: Radio-Ligand RORγ Binding Assay (Assay 1); conditions: competition with 25-hydroxy [26,27-3H]-cholesterol, SPA, read-out: RORγ Binding Ki Range*
recombinant RORγ Ligand Binding Domain (LBD) protein, sequence (P51449 269-508): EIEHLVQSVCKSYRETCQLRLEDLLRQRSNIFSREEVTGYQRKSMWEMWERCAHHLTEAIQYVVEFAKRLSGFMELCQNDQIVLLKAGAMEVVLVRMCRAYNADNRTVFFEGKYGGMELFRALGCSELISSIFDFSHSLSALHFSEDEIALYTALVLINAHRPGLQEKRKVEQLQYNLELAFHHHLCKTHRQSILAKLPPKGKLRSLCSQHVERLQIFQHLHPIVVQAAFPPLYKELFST
Experimental: Radio-Ligand RORγ Binding Assay (Assay 1)
Compounds of the present invention were tested for ability to bind to RORγ in a cell-free competition assay with commercially available radio-ligand (RL), 25-hydroxy [26,27-^3H]— cholesterol (PerkinElmer, Cat. # NET674250UC), for a ligand binding site on a recombinant RORγ Ligand Binding Domain (LBD) protein expressed as a 6×His-Glutathione-S-Transferase (GST) fusion (“6×His” disclosed as SEQ ID NO: 2). The assay was performed in 96-well SPA plates (PerkinElmer, Cat. #1450-401) in 50 mM HEPES buffer, pH 7.4, containing 150 mM NaCl, 5 mM MgCl2, 10% (v/v) glycerol, 2 mM CHAPS, 0.5 mM β-octylglucopyranoside and 5 mM DTT. Tested compounds were dissolved in DMSO, and semi-log (3.162×) serial dilutions of the compounds were prepared in the same solvent. Two μL of the DMSO solutions were mixed with 28 μL of 8.6 nM 25-hydroxy [26,27-^3H]— cholesterol and 50 μL of 24 nM RORγ LBD. The plate was shaken at 700 rpm for 20 min and incubated for 10 min at rt, after which 40 μL of poly-Lys YSi SPA beads (PerkinElmer, Cat. # RPNQ0010) were added to achieve 50 μg of the beads per well. The plate was incubated on an orbital shaker for 20 min and then for 10 min without agitation at rt. SPA signal for tritium beta radiation was registered on PerkinElmer Microbeta plate reader. Percent inhibition values were calculated based on the high signal obtained with DMSO control and the low signal observed with 10 μM standard RORγ inverse agonist T0901317 (SigmaAldrich, Cat. # T2320). The percent inhibition vs. concentration data were fit into a four-parameter model, and […] values were calculated from the fit as the concentrations corresponding to the inflection points on the dose-response curves. Inhibitory constants (Ki) were calculated using the following equation, where [RL] is the concentration in the assay and KD is a dissociation constant of 25-hydroxy [26,27-^3H]-cholesterol: […]

[2] = target: full-length RORγt in Jurkat cells (Homo sapiens (Human), UniProt P51449); experiment: RORγt 5xRORE Assay in Jurkat Cells (Assay 2); type: cell-based; conditions: Nanoluc luciferase reporter, 16-18 hrs
full-length RORγt in Jurkat cells, sequence (P51449 other isoform, or with tags, fused parts or gaps): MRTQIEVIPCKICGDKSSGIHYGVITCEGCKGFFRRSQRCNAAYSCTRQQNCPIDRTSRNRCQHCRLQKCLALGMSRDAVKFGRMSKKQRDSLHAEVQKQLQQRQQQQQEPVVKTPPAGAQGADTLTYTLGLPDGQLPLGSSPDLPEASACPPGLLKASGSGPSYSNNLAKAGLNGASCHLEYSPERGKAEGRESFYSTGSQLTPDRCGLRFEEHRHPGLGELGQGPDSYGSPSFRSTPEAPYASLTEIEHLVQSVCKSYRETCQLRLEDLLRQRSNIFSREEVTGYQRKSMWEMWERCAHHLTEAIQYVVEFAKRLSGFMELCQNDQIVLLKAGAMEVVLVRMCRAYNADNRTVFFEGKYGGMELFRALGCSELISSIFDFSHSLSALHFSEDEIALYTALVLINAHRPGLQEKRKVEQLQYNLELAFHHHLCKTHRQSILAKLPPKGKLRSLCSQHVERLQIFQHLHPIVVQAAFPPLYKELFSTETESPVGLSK
Experimental: [formula] RORγt 5xRORE Assay in Jurkat Cells (Assay 2)
Compounds of the present invention were tested for RORγ inverse agonist activity in a cell-based, transcriptional activity assay. Secreted Nanoluc® luciferase was used as a reporter for transcriptional activity of the full-length RORγt in Jurkat cells (ATCC, Cat. # TIB-152). A reporter plasmid was constructed by inserting 5 repeats of the ROR Response Element (RORE) […] (SEQ ID NO:1) into a commercially available promoterless plasmid pNL1.3[secNluc] (Promega, Cat. # N1021) using KpnI and HindIII restriction sites. The expression plasmid for RORγt was purchased (Geneocopoeia, Cat. # EX-T6988-M02). Jurkat cells (30 million cells) were transfected with 11 μg of EX-T6988-MO2 and 26 μg of the reporter plasmid in OptiMEM® media using Lipofectamine® LTX and Plus™ reagents (Life Technologies, Cat. #15338-100). After 5-6 h of incubation at 37° C./5% CO2, the cells were collected, resuspended in phenol-red free RPMI media containing 10% (v/v) delipidated FBS (Hyclone, Cat. # SH30855.03) and dispensed into 96-well clear bottom tissue culture plates (CoStar, Cat. #3603), at 80,000 cells per well. Tested compounds were added to the cells in the same media (final concentration of DMSO was 0.1% (v/v)), and the plates were incubated at 37° C./5% CO2 for 16-18 hrs. Luciferase activity in the conditioned supernatants was determined with NanoGlo® assay reagents (Promega, Cat. # N1130).

[3] = Table 9, read-out: RORγt5X IC50 Range*
[4] = Table 8, read-out: RORγt5X IC50 Range*

SMILES | Ki ([1]; Table 9) | IC50 [2, 3] | Ki ([1]; Table 8) | IC50 [2, 4]
CCS(=O)(=O)c1ccc(CC(=O)Nc2nc3c(s2)CN(Cc2ccc(C#N)c(F)c2)[C@@H]3C(C)C)cc1 | 100 to 1000 nM | 100 to 1000 nM | – | –
CCS(=O)(=O)c1ccc(CC(=O)Nc2nc3c(s2)CN(Cc2ccn(C4CC4)c(=O)c2)[C@H]3C(C)C)cc1 | < 100 nM | 100 to 1000 nM | – | –
CC(C)[C@H]1c2nc(NS(=O)(=O)c3ccc(CC(=O)O)cc3)sc2CN1Cc1ccc(C#N)c(F)c1 [I-D2, (S)-2-(4-(N-(5-(4-cyano-3-fluorobenzyl)-4-isopropyl-5,6-dihydro-4H-pyrrolo[3,4-d]thiazol-2-yl)sulfamoyl)phenyl)acetic acid] | – | – | < 100 nM | > 1000 nM
CC[C@@H]1c2nc(NC(=O)Cc3ccc(S(=O)(=O)CC)cc3)sc2CN1Cc1ccccc1F | < 100 nM | > 1000 nM | – | –
CCS(=O)(=O)c1ccc(CC(=O)Nc2nc3c(s2)CN(Cc2ccccc2)[C@H]3C(C)C)cc1 [I-A7] | – | – | < 100 nM | > 1000 nM
CCS(=O)(=O)c1ccc(CC(=O)Nc2nc3c(s2)CN(Cc2ccc(OC(F)F)cc2)[C@H]3C(C)C)nc1 [I-C2] | – | – | < 100 nM | < 100 nM
CC(C)[C@@H]1c2nc(NC(=O)Cc3ccc(S(C)(=O)=O)cc3)sc2CN1Cc1cccc(Cl)c1 | < 100 nM | > 1000 nM | – | –
CCS(=O)(=O)c1ccc(CC(=O)Nc2nc3c(s2)CN(C[C@@H]2CC[C@H](C(F)(F)F)NC2)[C@H]3C(C)C)nc1 (single isomer, unassigned) | < 100 nM | > 1000 nM | – | –
CCS(=O)(=O)c1ccc(CC(=O)Nc2nc3c(s2)CN(C[C@H]2CC[C@@H](C(F)(F)F)N(C)C2)C3C(C)C)cc1 (single isomer, unassigned) | < 100 nM | > 1000 nM | – | –
CCS(=O)(=O)c1ccc(CC(=O)Nc2nc3c(s2)CN(Cc2ccc(C#N)cc2F)[C@H]3C(C)C)cc1 [I-A13] | – | – | < 100 nM | < 100 nM
CCS(=O)(=O)c1ccc(CC(=O)Nc2nc3c(s2)CN(C[C@H]2CC[C@H](OC(F)F)CC2)[C@H]3C(C)C)cc1 [I-A28] | – | – | < 100 nM | < 100 nM
CCS(=O)(=O)c1ccc(CC(=O)Nc2nc3c(s2)CN([C@H](C)Cc2ccccc2)[C@H]3C(C)C)cc1 | < 100 nM | > 1000 nM | – | –
CCS(=O)(=O)c1ccc(CC(=O)Nc2nc3c(s2)CN(Cc2ccc(CO)cc2)[C@H]3C(C)C)cc1 | < 100 nM | 100 to 1000 nM | – | –
CCS(=O)(=O)c1ccc(CC(=O)Nc2nc3c(s2)CN(C[C@H]2CC[C@H](C(F)(F)F)NC2)[C@H]3C(C)C)nc1 (single isomer, unassigned) [drawing 211] | 100 to 1000 nM | 100 to 1000 nM | – | –
CCS(=O)(=O)c1ccc(CC(=O)Nc2nc3c(s2)CN(C2CCC(C(F)(F)F)CC2)[C@H]3C(C)C)cc1 (stereo partly shown) | < 100 nM | 100 to 1000 nM | – | –
CCS(=O)(=O)c1ccc(CC(=O)Nc2nc3c(s2)CN(CCc2ccc(Cl)cc2)[C@H]3C(C)C)cc1 | < 100 nM | > 1000 nM | – | –
CCS(=O)(=O)c1ccc(CC(=O)Nc2nc3c(s2)CN(C[C@H]2CC[C@](O)(C(F)(F)F)CC2)[C@H]3C(C)C)cc1 (single isomer, unassigned) | < 100 nM | < 100 nM | – | –
CCS(=O)(=O)c1ccc(CC(=O)Nc2nc3c(s2)CN(c2cnc(C(F)(F)F)cn2)[C@H]3C(C)C)cc1 | < 100 nM | > 1000 nM | – | –
Cc1nc(C(F)(F)F)ccc1CN1Cc2sc(NC(=O)Cc3ccc(S(C)(=O)=O)cc3F)nc2[C@@H]1C(C)C | < 100 nM | < 100 nM | – | –
CC(C)[C@H]1c2nc(NC(=O)Cc3ccc(S(C)(=O)=O)cc3)sc2CN1[C@H](C)c1ccc(C#N)cc1 [I-B14] | – | – | < 100 nM | < 100 nM
CCS(=O)(=O)c1ccc(CC(=O)Nc2nc3c(s2)CN(Cc2ccc(-c4ccn(C)c(=O)c4)cc2)[C@H]3C(C)C)cc1 [I-A18, (S)-2-(4-(ethylsulfonyl)phenyl)-N-(4-isopropyl-5-(4-(1-methyl-2-oxo-1,2-dihydropyridin-4-yl)benzyl)-5,6-dihydro-4H-pyrrolo[3,4-d]thiazol-2-yl)acetamide] | – | – | < 100 nM | < 100 nM

SMILES | Ki ([1]; Table 9) | IC50 [2, 3] | Ki ([1]; Table 8) | IC50 [2, 4]
CC(C)[C@H]1c2nc(NC(=O)Cc3ccc(S(C)(=O)=O)cc3)sc2CN1Cc1ccc(-c2nnn[nH]2)cc1 | 100 to 1000 nM | > 1000 nM | – | –
CCS(=O)(=O)c1ccc(CC(=O)Nc2nc3c(s2)CN(C[C@@H]2CC[C@H](C(F)(F)F)NC2)[C@H]3C(C)C)cc1 (single isomer, unassigned) | < 100 nM | > 1000 nM | – | –
CCS(=O)(=O)c1ccc(CC(=O)Nc2nc3c(s2)CN(Cc2ccc(C(F)(F)F)c(Cl)c2)[C@@H]3C(C)C)cc1 | < 100 nM | 100 to 1000 nM | – | –
CCS(=O)(=O)c1ccc(CC(=O)Nc2nc3c(s2)CN(Cc2ccc(OC(F)(F)F)cc2)[C@@H]3C(C)C)cc1 | < 100 nM | 100 to 1000 nM | – | –
CC(C)[C@H]1c2nc(NC(=O)Cc3ccc(S(C)(=O)=O)cc3)sc2CN1Cc1cnc(C(F)(F)F)nc1 | < 100 nM | < 100 nM | – | –
CCS(=O)(=O)c1ccc(CC(=O)Nc2nc3c(s2)CN(Cc2ccc(F)c(F)c2)[C@H]3C(C)C)cc1 | < 100 nM | > 1000 nM | – | –
CC[C@H]1c2nc(NC(=O)Cc3ccc(S(=O)(=O)CC)cc3)sc2CN1[C@@H](C)c1ncc(Cl)cc1F | < 100 nM | 100 to 1000 nM | – | –
CCS(=O)(=O)c1ccc(CC(=O)Nc2nc3c(s2)CN(C[C@@H]2CC[C@H](C(F)(F)F)OC2)[C@H]3C(C)C)nc1 (single isomer, unassigned) | < 100 nM | > 1000 nM | – | –
CCS(=O)(=O)c1ccc(CC(=O)Nc2nc3c(s2)CN(Cc2ccc(C(F)(F)F)c(C)n2)[C@H]3C(C)C)cc1 [I-A33] | – | – | < 100 nM | < 100 nM
CCS(=O)(=O)c1ccc(CC(=O)Nc2nc3c(s2)CN(C[C@H]2CC[C@H](C(F)(F)F)OC2)[C@H]3C(C)C)cc1 [I-A27] | – | – | < 100 nM | < 100 nM
CC(C)[C@@H]1c2nc(NC(=O)Cc3ccc(S(C)(=O)=O)cc3)sc2CN1[C@H](C)c1ccc(C(F)(F)F)cc1 (single isomer, unassigned) | 100 to 1000 nM | 100 to 1000 nM | – | –
CC(C)[C@H]1c2nc(NC(=O)Cc3ccc(S(C)(=O)=O)cc3)sc2CN1Cc1ccc(C#N)cc1Cl [I-B16] | – | – | < 100 nM | < 100 nM
CCS(=O)(=O)c1ccc(CC(=O)Nc2nc3c(s2)CN(Cc2cnc(C)nc2)[C@H]3C(C)C)cc1 | < 100 nM | 100 to 1000 nM | – | –
CC1(C)c2nc(NC(=O)Cc3ccc(S(C)(=O)=O)cc3)sc2CN1Cc1ccc(Cl)cc1 | 100 to 1000 nM | > 1000 nM | – | –
CCS(=O)(=O)c1ccc(CC(=O)Nc2nc3c(s2)CN(Cc2ccc(C#N)c(OC)n2)[C@H]3C(C)C)cc1 [I-A51] | – | – | < 100 nM | < 100 nM
CCS(=O)(=O)c1ccc(CNC(=O)c2nc3c(s2)CN(Cc2ccc(-c4nnn(C)n4)cc2)[C@H]3C(C)C)cc1 [I-J3] | – | – | < 100 nM | < 100 nM
CCS(=O)(=O)c1ccc(CC(=O)Nc2nc3c(s2)CN(C[C@H]2CCCCO2)[C@H]3C(C)C)cc1 (relative stereo) | < 100 nM | > 1000 nM | – | –
CC(C)[C@@H]1c2nc(NC(=O)Cc3ccc(S(C)(=O)=O)cc3)sc2CN1Cc1ccc(OC(F)F)cc1 | 100 to 1000 nM | 100 to 1000 nM | – | –
CCS(=O)(=O)c1ccc(CNC(=O)c2nc3c(s2)CN(Cc2cnc(C(F)(F)F)nc2)[C@H]3C(C)C)cc1 | 100 to 1000 nM | 100 to 1000 nM | – | –
CCS(=O)(=O)c1ccc(CC(=O)Nc2nc3c(s2)CN(Cc2ccccc2)[C@@H]3C(C)C)cc1 | < 100 nM | > 1000 nM | – | –
